# Test results from patent publication US10918713B2, “Epitopes from allergen proteins and methods and uses for immune response modulation” (LA JOLLA INSTITUTE FOR ALLERGY AND IMMUNOLOGY, priority 2012, dated 2021).
# Values joined by “and” are separate entries in the source; they are usually repeats but may differ in a detail not shown here. Equal entries are not always repeated.
# Assays:
# [1] = target: DPB1*0401 (Homo sapiens, UniProt P04440+P20036); assay: biochemical
# [2] = tested on: PBMC from allergic donors; assay: Dual ELISPOT, total IL-5 and IFN-γ response (SFC); format: cell-based, human; conditions: sum of IFNg and IL-5
# Method: (§1) Spots were counted by computer-assisted image analysis (Zeiss, KS-ELISPOT reader, Munich, Germany).
# (§2) Each assay was performed in triplicate. The level of statistical significance was determined with a Student's t-test using the mean of triplicate values of the response against relevant pools or individual peptides versus the response against the DMSO control.
# [3] = tested on: PBMC from allergic donors; assay: IFN-γ ELISPOT with extract-stimulated short-term lines; format: cell-based, human; conditions: positive donor/peptide response
# Method: as §1, §2
# [4] = tested on: PBMC from allergic donors; assay: IL-5 ELISPOT with extract-stimulated short-term lines; format: cell-based, human; conditions: positive donor/peptide response
# Method: as §1, §2
Molecule,IC50 [1] [nM],Response (SFC/10^6) Total ([2]; each table line is one donor),Response (SFC/10^6) IFNg ([3]; each table line is one donor),Response (SFC/10^6) IL-5 ([4]; each table line is one donor),Response (SFC/10^6) Total ([2]; one donor per table line),Response (SFC/10^6) IFNg ([3]; one donor per table line),Response (SFC/10^6) IL-5 ([4]; one donor per table line)
CC[C@H](C)[C@H](N)C(=O)N[C@H](C(=O)N[C@@H](Cc1ccc(O)cc1)C(=O)N[C@H](C(=O)N[C@@H](C)C(=O)N[C@H](C(=O)N[C@@H](C)C(=O)N[C@H](C(=O)N[C@@H](CC(C)C)C(=O)N1CCC[C@H]1C(=O)N[C@@H](CC(N)=O)C(=O)N[C@@H](Cc1ccc(O)cc1)C(=O)N[C@@H](CS)C(=O)N[C@@H](CCCNC(=N)N)C(=O)N[C@@H](C)C(=O)O)[C@@H](C)O)[C@@H](C)O)C(C)C)[C@@H](C)O [3324.0014],2990,–,–,–,–,–,–
CC[C@H](C)[C@H](NC(=O)[C@H](Cc1ccc(O)cc1)NC(=O)[C@H](C)NC(=O)[C@H](CC(=O)O)NC(=O)[C@H](C)NC(=O)[C@@H](NC(=O)CNC(=O)[C@@H](N)CCC(N)=O)C(C)C)C(=O)N[C@H](C(=O)N[C@@H](CC(C)C)C(=O)N[C@H](C(=O)N[C@H](C(=O)N[C@@H](CC(C)C)C(=O)N1CCC[C@H]1C(=O)N[C@@H](CCCCN)C(=O)O)[C@@H](C)O)C(C)C)[C@@H](C)O [3324.0011],2010,–,–,–,–,–,–
CC[C@H](C)[C@H](NC(=O)[C@H](Cc1ccccc1)NC(=O)[C@H](C)NC(=O)[C@@H](N)CC(=O)O)C(=O)N[C@@H](C)C(=O)N[C@@H](C)C(=O)N[C@@H](CC(C)C)C(=O)N[C@H](C(=O)N[C@@H](CCC(=O)O)C(=O)N[C@@H](C)C(=O)N[C@@H](CC(C)C)C(=O)N[C@@H](CCCNC(=N)N)C(=O)N[C@H](C(=O)N[C@H](C(=O)N[C@@H](C)C(=O)O)[C@@H](C)CC)C(C)C)[C@@H](C)O [3324.1432],–,713 SFC/10^6 and 540 SFC/10^6,713 SFC/10^6,540 SFC/10^6,–,–,–
CC[C@H](C)[C@H](NC(=O)[C@@H](N)CC(=O)O)C(=O)N[C@@H](CC(N)=O)C(=O)N[C@H](C(=O)NCC(=O)N[C@@H](Cc1ccccc1)C(=O)N[C@@H](CCCCN)C(=O)N[C@@H](C)C(=O)N[C@@H](C)C(=O)N[C@H](C(=O)N[C@@H](C)C(=O)N[C@@H](C)C(=O)N[C@@H](C)C(=O)N[C@@H](C)C(=O)NCC(=O)O)C(C)C)C(C)C [3324.1571],–,397 SFC/10^6 and 47 SFC/10^6 and 1057 SFC/10^6 and 1183 SFC/10^6,47 SFC/10^6 and 1183 SFC/10^6,397 SFC/10^6 and 1057 SFC/10^6,–,–,–
CC[C@H](C)[C@H](NC(=O)[C@@H](NC(=O)[C@@H](NC(=O)[C@H](C)NC(=O)[C@@H](NC(=O)[C@H](C)NC(=O)[C@H](CO)NC(=O)[C@H](Cc1c[nH]cn1)NC(=O)[C@@H](NC(=O)[C@H](CCC(N)=O)NC(=O)[C@H](C)NC(=O)[C@H](CC(C)C)NC(=O)[C@H](C)NC(=O)[C@H](CCC(=O)O)NC(=O)[C@@H](N)CCCNC(=N)N)[C@@H](C)O)[C@@H](C)CC)C(C)C)[C@@H](C)CC)C(=O)O [3324.0840],–,–,–,–,1883 SFC/10^6 and 900 SFC/10^6,1407 SFC/10^6,477 SFC/10^6 and 900 SFC/10^6
3324.0613 (MNIKLQMPLYVAGYK),–,–,–,–,652 SFC/10^6 and 120 SFC/10^6,120 SFC/10^6,652 SFC/10^6
CC[C@H](C)[C@H](NC(=O)[C@H](Cc1ccccc1)NC(=O)[C@H](CC(=O)O)NC(=O)[C@@H](NC(=O)[C@@H](NC(=O)CNC(=O)[C@@H](N)CCC(=O)O)[C@@H](C)O)C(C)C)C(=O)N[C@@H](Cc1ccccc1)C(=O)NCC(=O)N[C@@H](CCC(=O)O)C(=O)N[C@@H](C)C(=O)N[C@@H](CCCNC(=N)N)C(=O)N[C@@H](CO)C(=O)N[C@@H](CC(C)C)C(=O)N[C@@H](Cc1ccc(O)cc1)C(=O)O [3324.1590],–,1697 SFC/10^6 and 363 SFC/10^6,397 SFC/10^6,1300 SFC/10^6 and 363 SFC/10^6,–,–,–
CC[C@H](C)[C@H](NC(=O)[C@H](CC(N)=O)NC(=O)[C@@H](NC(=O)[C@H](CC(=O)O)NC(=O)[C@@H](N)CCC(=O)O)[C@@H](C)O)C(=O)N[C@@H](Cc1ccc(O)cc1)C(=O)N[C@@H](CC(N)=O)C(=O)N[C@@H](CO)C(=O)N[C@@H](CC(N)=O)C(=O)N[C@@H](CCC(=O)O)C(=O)N[C@@H](C)C(=O)N[C@@H](Cc1ccccc1)C(=O)N[C@@H](CCCCN)C(=O)N[C@H](C(=O)N[C@@H](CCC(=O)O)C(=O)O)C(C)C [3324.0606],–,–,–,–,427 SFC/10^6 and 240 SFC/10^6 and 73 SFC/10^6,240 SFC/10^6 and 73 SFC/10^6,427 SFC/10^6
3324.0836 (EIDLRQMRTVTPIRM),–,–,–,–,733 SFC/10^6,120 SFC/10^6,613 SFC/10^6
